The target in experiment [1] is human TLR7 (Homo sapiens (Human), UniProt Q9NYK1). The experiment can be described thus: TLR7 inhibition reporter assay (HEK-Blue SEAP). In kind it is cell-based. A general note: Reporter assays use an easily measured gene product as a stand-in for the process of interest.
In experiment [2] the target is human TLR8 (Homo sapiens (Human), UniProt Q9NR97). The experiment can be described thus: TLR8 inhibition reporter assay (HEK-Blue SEAP).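 Note: SEAP driven by IFN-β minimal promoter carrying NF-κB and AP-1 sites, compounds dosed 0.05 nM to 50 µM for 22 h, inhibition scaled between agonist-plus-DMSO and reference-inhibitor wells.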 As to conditions: read-out: TLR8 IC50.
Sequence of human TLR8 (Q9NR97 27-1041): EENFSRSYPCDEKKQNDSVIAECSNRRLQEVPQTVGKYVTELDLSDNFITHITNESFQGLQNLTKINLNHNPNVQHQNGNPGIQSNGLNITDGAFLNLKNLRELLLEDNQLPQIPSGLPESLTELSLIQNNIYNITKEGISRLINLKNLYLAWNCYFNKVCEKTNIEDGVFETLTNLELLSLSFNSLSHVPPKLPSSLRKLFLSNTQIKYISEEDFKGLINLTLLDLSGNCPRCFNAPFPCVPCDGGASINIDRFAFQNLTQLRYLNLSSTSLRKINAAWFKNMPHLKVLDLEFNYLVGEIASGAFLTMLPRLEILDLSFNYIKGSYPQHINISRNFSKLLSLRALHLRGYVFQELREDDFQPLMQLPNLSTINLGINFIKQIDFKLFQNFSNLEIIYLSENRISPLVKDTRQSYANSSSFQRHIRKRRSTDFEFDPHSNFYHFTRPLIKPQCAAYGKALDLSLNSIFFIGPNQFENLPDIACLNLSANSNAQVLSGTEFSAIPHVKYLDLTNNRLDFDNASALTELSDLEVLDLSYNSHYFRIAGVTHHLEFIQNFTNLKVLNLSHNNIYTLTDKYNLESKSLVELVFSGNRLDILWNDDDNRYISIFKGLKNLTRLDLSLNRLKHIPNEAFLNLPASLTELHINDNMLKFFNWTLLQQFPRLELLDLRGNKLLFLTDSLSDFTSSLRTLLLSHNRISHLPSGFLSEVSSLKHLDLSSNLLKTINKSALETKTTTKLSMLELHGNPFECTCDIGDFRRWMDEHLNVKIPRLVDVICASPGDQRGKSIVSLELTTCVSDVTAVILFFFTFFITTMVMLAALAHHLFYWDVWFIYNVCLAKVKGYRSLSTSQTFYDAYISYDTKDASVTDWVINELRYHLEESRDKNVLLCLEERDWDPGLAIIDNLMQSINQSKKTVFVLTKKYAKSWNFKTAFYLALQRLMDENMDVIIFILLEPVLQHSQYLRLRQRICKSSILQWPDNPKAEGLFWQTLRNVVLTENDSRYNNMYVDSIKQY
For experiment [3], the target named is human TLR9 (Homo sapiens (Human), UniProt Q9NR96). The experiment can be described thus: TLR9 inhibition reporter assay (HEK-Blue SEAP).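 Note: SEAP driven by an IFN-β minimal promoter with NF-κB and AP-1 sites, read after 22 h, compounds dosed 0.05 nM–50 µM, inhibition scaled between agonist plus DMSO and reference-inhibitor wells.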 As to conditions: read-out: TLR9 IC50.
Sequence of human TLR9 (Q9NR96 26-1032): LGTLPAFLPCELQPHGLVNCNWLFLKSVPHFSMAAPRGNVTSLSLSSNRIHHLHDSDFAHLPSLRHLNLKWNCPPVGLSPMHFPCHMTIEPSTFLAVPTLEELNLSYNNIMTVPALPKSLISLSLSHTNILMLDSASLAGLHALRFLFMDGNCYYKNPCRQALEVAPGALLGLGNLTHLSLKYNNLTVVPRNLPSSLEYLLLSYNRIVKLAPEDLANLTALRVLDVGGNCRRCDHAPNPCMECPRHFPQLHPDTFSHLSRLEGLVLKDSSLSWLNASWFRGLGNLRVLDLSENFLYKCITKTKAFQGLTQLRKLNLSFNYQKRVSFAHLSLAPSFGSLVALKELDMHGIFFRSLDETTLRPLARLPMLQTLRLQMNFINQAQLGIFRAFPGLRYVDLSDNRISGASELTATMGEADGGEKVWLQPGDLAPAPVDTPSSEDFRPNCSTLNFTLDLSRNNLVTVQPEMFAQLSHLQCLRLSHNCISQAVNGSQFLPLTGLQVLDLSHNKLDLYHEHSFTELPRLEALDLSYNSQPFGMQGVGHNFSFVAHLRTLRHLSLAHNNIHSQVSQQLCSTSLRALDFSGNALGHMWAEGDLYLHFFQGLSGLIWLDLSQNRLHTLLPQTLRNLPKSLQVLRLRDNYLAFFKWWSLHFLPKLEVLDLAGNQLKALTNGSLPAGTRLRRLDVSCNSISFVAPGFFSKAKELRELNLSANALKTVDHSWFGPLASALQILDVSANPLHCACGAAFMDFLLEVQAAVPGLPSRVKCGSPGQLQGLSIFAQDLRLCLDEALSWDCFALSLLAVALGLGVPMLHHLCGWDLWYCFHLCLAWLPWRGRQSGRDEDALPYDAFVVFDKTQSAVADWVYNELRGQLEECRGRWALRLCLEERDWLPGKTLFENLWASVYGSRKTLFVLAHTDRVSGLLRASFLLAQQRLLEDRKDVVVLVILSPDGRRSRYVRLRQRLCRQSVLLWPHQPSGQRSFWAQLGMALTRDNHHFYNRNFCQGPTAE
Where [4] appears, read: HEK-Blue human TLR7 cells, gardiquimod 7.5 μM.
The mark [5] stands for this setting: HEK-Blue human TLR8 cells, R848 15.9 μM.
Where [6] appears, read: HEK-Blue human TLR9 cells, ODN2006 5 nM.
The mark [7] stands for this setting: HEK-Blue cells overexpressing human TLR7, SEAP reporter, gardiquimod 7.5 μM.
Where [8] appears, read: HEK-Blue cells overexpressing human TLR8, SEAP reporter, R848 15.9 μM.
[9] abbreviates: HEK-Blue cells overexpressing human TLR9, SEAP reporter, ODN2006 5 nM.
Setting [10] is: HEK-Blue cells overexpressing human TLR7, gardiquimod 7.5 μM stimulation, SEAP reporter.
[11] abbreviates: HEK-Blue cells overexpressing human TLR8, R848 15.9 μM stimulation, SEAP reporter.
[12] abbreviates: HEK-Blue cells overexpressing human TLR9, ODN2006 5 nM stimulation, SEAP reporter.

Usually IC50 stands for the concentration that gives 50% inhibition.

Read-outs that look alike come from different tables or passages of the source.

Sequence of human TLR7 (Q9NYK1 27-1049): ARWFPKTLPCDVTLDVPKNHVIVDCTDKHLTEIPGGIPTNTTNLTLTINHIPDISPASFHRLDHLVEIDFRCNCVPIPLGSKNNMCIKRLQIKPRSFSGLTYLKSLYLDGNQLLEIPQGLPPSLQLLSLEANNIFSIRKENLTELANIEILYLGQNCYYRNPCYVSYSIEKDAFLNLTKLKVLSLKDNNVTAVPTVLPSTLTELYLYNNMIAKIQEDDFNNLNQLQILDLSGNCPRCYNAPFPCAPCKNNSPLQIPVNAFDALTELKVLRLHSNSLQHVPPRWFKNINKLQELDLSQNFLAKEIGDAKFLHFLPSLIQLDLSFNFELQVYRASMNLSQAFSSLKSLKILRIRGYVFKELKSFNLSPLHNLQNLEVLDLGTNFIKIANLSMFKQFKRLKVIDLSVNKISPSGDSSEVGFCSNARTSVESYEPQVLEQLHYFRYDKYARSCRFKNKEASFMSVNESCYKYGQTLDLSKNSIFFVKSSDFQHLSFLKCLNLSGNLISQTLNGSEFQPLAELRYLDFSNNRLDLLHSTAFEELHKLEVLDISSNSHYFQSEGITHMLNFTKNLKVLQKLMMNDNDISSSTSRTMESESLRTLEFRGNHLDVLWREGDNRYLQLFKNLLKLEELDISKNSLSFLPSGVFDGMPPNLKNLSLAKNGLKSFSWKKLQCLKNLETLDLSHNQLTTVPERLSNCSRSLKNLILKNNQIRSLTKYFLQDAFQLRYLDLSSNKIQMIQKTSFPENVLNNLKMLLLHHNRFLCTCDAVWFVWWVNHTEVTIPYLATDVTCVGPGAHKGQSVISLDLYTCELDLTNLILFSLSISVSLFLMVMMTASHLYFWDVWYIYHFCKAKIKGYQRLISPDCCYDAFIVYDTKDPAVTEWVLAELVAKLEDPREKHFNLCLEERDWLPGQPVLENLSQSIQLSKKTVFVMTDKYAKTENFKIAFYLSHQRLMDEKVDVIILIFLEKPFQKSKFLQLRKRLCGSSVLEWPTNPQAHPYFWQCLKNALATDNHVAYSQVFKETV

For the molecule `Cc1c(-c2[nH]c3ccc(N4CCN(C(=O)CN(C)C)C[C@H]4C)nc3c2C(C)C)cn2ncnc2c1C` [Example 808], the 50% inhibitory concentration (IC50) in experiment [1] (setting [4]) came to 0.19 nM; in experiment [2] (setting [5]), 1.4 nM; in experiment [3] (setting [6]), 8950 nM.
On to `Cc1c(-c2[nH]c3ccc(N4CC5(CN(C)C5)C4)nc3c2C(C)C)cn2ncnc2c1C` [Example 741, 6-(3-isopropyl-5-(6-methyl-2,6-diazaspiro[3.3]heptan-2-yl)-1H-pyrrolo[3,2-b]pyridin-2-yl)-7,8-dimethyl-[1,2,4]triazolo[1,5-a]pyridine], for which the IC50 in experiment [1] (setting [7]) turned out to be 1.9 nM; in experiment [2] (setting [8]) it was 6.5 nM; in experiment [3] (setting [9]), 3030 nM.
`Cc1cc(-c2[nH]c3ccc(CCN4CCCCC4)nc3c2C(C)C)cn2ncnc12` [Example 681]: the IC50 in experiment [1] (setting [7]) amounted to 104 nM; in experiment [2] (setting [8]) it was 199 nM; in experiment [3] (setting [9]), 4240 nM.
As to `Cc1c(-c2[nH]c3ccc(N4CCN(C(=O)CNC5CC5)C[C@@H]4C)nc3c2C(C)C)cn2ncnc2c1C` [Example 826], the IC50 is 0.7 nM in experiment [1] (setting [4]), 1 nM in experiment [2] (setting [5]) and 15700 nM in experiment [3] (setting [6]).
For `Cc1c(-c2[nH]c3ccc(N4CCN(C(=O)C5CN(C)C5)CC4)nc3c2C(C)C)cn2ncnc2c1C` [Example 828], the IC50 in experiment [1] (setting [4]) is 0.88 nM; in experiment [2] (setting [5]), 1.4 nM; in experiment [3] (setting [6]) it was 7160 nM.
As for `CCN(C)CC(=O)N1CCN(c2ccc3[nH]c(-c4cn5ncnc5c(C)c4C)c(C(C)C)c3n2)CC1` [Example 870], the IC50 in experiment [1] (setting [4]) came out at 0.56 nM; in experiment [2] (setting [5]), 3.3 nM; in experiment [3] (setting [6]), 14400 nM.
`C#CCNC1CCC(c2ccc3[nH]c(-c4cn5ncnc5c(C)c4C)c(C(C)C)c3n2)CC1` (stereo not drawn) [Example 371]: the concentration for half-maximal inhibition (IC50) in experiment [1] (setting [10]) amounted to 6 nM; in experiment [2] (setting [11]) it was 14 nM; in experiment [3] (setting [12]), 4360 nM.
For `Cc1ncc(CN(C)C2CCC(c3ccc4[nH]c(-c5cn6ncnc6c(C)c5C)c(C(C)C)c4n3)CC2)cn1` (stereo not drawn) [Example 394], the results for the IC50 in experiment [1] (setting [10]), in experiment [2] (setting [11]) and in experiment [3] (setting [12]) were 1.4 nM, 1.5 nM and 1410 nM, respectively.
Consider `CC(C)c1c(-c2cn(C)c3ncccc23)[nH]c2ccc(CCC3CN(CC(=O)N(C)C)C3)nc12` [Example 683], for which the IC50 was 12 nM in experiment [1] (setting [7]), 13 nM in experiment [2] (setting [8]) and 322 nM in experiment [3] (setting [9]).
As to `Cc1c(-c2[nH]c3ccc(C4CCC(O)(CN)CC4)nc3c2C(C)C)cn2ncnc2c1C` (stereo not drawn) [Example 1035, 1-(aminomethyl)-4-(2-(7,8-dimethyl-[1,2,4]triazolo[1,5-a]pyridin-6-yl)-3-isopropyl-1H-pyrrolo[3,2-b]pyridin-5-yl)cyclohexan-1-ol], the values for the IC50 in experiment [1] (setting [4]), in experiment [2] (setting [5]) and in experiment [3] (setting [6]) were 1.7 nM, 21 nM and 3670 nM, respectively.
As to `COc1cc(-c2[nH]c3ccc(C4CC(NCC5(C)COC5)C4)nc3c2C(C)C)cn2ncnc12` (stereo not drawn) [Example 616], the IC50 came to 3.6 nM in experiment [1] (setting [7]), 1.5 nM in experiment [2] (setting [8]) and 1280 nM in experiment [3] (setting [9]).
With `COc1cc(-c2[nH]c3ccc(C4CCC(N5CCC[C@H]5CO)CC4)nc3c2C(C)C)cn2ncnc12` (stereo partly drawn) [Example 197], the IC50 in experiment [1] (setting [10]) stood at 0.34 nM; in experiment [2] (setting [11]) it was 1.7 nM; in experiment [3] (setting [12]) it was 134 nM.
Consider `COc1cc(-c2[nH]c3ccc(C4CCC(N5CCCC5)CC4)nc3c2C(C)C)cn2ncnc12` (stereo not drawn) [Example 199], for which the IC50 in experiment [1] (setting [10]) stood at 0.16 nM; in experiment [2] (setting [11]), 6.4 nM; in experiment [3] (setting [12]), 1190 nM.
In the same order, the values of `CC(C)c1c(-c2cc(CO)c3ncnn3c2)[nH]c2ccc(C3CCC(NCCC(F)(F)F)CC3)nc12` (stereo not drawn) [Example 308] are 11 nM, 11 nM and 3960 nM.
For “4-((3-isopropyl-2-(8-methoxy-[1,2,4]triazolo[1,5-a]pyridin-6-yl)-1H-pyrrolo[3,2-b]pyridin-5-yl)oxy)-N,N-dipropylcyclohexan-1-amine [Example 605]”, the IC50 in experiment [1] (setting [7]) worked out at 13 nM; in experiment [2] (setting [8]) it was 17 nM; in experiment [3] (setting [9]) it was 4240 nM.
For the molecule `Cc1c(-c2[nH]c3ccc(N4[C@@H](C)CNC[C@@H]4C)nc3c2C(C)C)cn2ncnc2c1C` [Example 821], the IC50 in experiment [1] (setting [4]) stood at 1.3 nM; in experiment [2] (setting [5]), 1.3 nM; in experiment [3] (setting [6]) it was 6690 nM.
As to `Cc1c(-c2[nH]c3ccc(N4CCN(C(=O)CNC5CC5)C[C@H]4C)nc3c2C(C)C)cn2ncnc2c1C` [Example 836], the IC50 in experiment [1] (setting [4]) was determined as 2.4 nM; in experiment [2] (setting [5]) it was 4.1 nM; in experiment [3] (setting [6]) it was 16400 nM.
As to `COc1cc(-c2[nH]c3cc(C)c(C4CCC(N(C)Cc5ncn(C)n5)CC4)nc3c2C(C)C)cn2ncnc12` (stereo not drawn) [Example 333], the IC50 in experiment [1] (setting [10]) is 0.6 nM; in experiment [2] (setting [11]) it was 12 nM; in experiment [3] (setting [12]), 1460 nM.
Taken in the same sequence, the figures for `CC(C)c1c(-c2cn(C)c3ncccc23)[nH]c2ccc(C3CCC(NCCS(C)(=O)=O)CC3)nc12` (stereo not drawn) [Example 251] were 8.6 nM, 13 nM and 1750 nM.
Consider `CC[C@H]1CNCCN1c1ccc2[nH]c(-c3cn4ncnc4c(C)c3C)c(C(C)C)c2n1` [Example 988], for which the IC50 in experiment [1] (setting [4]) was 0.36 nM; in experiment [2] (setting [5]), 0.23 nM; in experiment [3] (setting [6]), 3770 nM.
As for `CC(C)c1c(-c2cc(CO)c3ncnn3c2)[nH]c2ccc(C3CCC(NC4COC4)CC3)nc12` (stereo not drawn) [Example 220], the results for the IC50 in experiment [1] (setting [10]), in experiment [2] (setting [11]) and in experiment [3] (setting [12]) were 6.7 nM, 6.1 nM and 1020 nM, respectively.
For the molecule `Cc1c(-c2[nH]c3ccc(C4CCC(N(C)C(C)C)CC4)nc3c2C(C)C)cn2ncnc2c1C` (stereo not drawn) [Example 1048], the IC50 was 4.4 nM in experiment [1] (setting [4]), 13 nM in experiment [2] (setting [5]) and 9830 nM in experiment [3] (setting [6]).
`Cc1c(-c2[nH]c3ccc(N4C[C@@H](C)N(C(=O)CN(CCO)C(C)(C)C)[C@H](C)C4)nc3c2C(C)C)cn2ncnc2c1C` [Example 930]: the figures for the IC50 in experiment [1] (setting [4]), in experiment [2] (setting [5]) and in experiment [3] (setting [6]) were 22 nM, 7.4 nM and 24300 nM, respectively.
As to `COCc1cc(-c2[nH]c3ccc(C4CCC(NCC(=O)N(C)C)CC4)nc3c2C(C)C)cn2ncnc12` (stereo not drawn) [Example 213], the IC50 in experiment [1] (setting [10]) was 9.5 nM; in experiment [2] (setting [11]) it was 17 nM; in experiment [3] (setting [12]) it was 706 nM.
In the case of `Cc1cc(-c2[nH]c3ccc(C4CCC(N5CC6(COC6)C5)CC4)nc3c2C(C)C)cc(C)n1` (stereo not drawn) [Example 283], the IC50 stood at 0.92 nM in experiment [1] (setting [10]), 1.4 nM in experiment [2] (setting [11]) and 298 nM in experiment [3] (setting [12]).
`CC(C)c1c(-c2cc(CO)c3ncnn3c2)[nH]c2ccc(C3CCC(NCc4c[nH]nn4)CC3)nc12` (stereo not drawn) [Example 218]: the IC50 amounted to 8.5 nM in experiment [1] (setting [10]), 20 nM in experiment [2] (setting [11]) and 389 nM in experiment [3] (setting [12]).
`COc1cc(-c2[nH]c3cc(C)c(C4CCN(C5CCOCC5)CC4)nc3c2C(C)C)cn2ncnc12` [Example 589]: the IC50 in experiment [1] (setting [7]) was 0.25 nM; in experiment [2] (setting [8]), 62 nM; in experiment [3] (setting [9]), 1060 nM.
Take `CC(=O)N(C)C1CCC(c2ccc3[nH]c(-c4cn5ncnc5c(C)c4C)c(C(C)C)c3n2)CC1` (stereo not drawn) [Example 440]: the IC50 is 6.4 nM in experiment [1] (setting [7]), 14 nM in experiment [2] (setting [8]) and more than 50000 nM in experiment [3] (setting [9]).
Regarding `CNC(=O)CNC1CCC(c2ccc3[nH]c(-c4cc(OC)c5ncnn5c4)c(C(C)C)c3n2)C1` (stereo not drawn) [Example 10, 2-((3-(3-isopropyl-2-(8-methoxy-[1,2,4]triazolo[1,5-a]pyridin-6-yl)-1H-pyrrolo[3,2-b]pyridin-5-yl)cyclopentyl)amino)-N-methylacetamide], the IC50 in experiment [1] (setting [10]) was 0.42 nM; in experiment [2] (setting [11]), 5.3 nM; in experiment [3] (setting [12]), 1050 nM.
As for `COc1cc(-c2[nH]c3ccc(C4CCC(N5CC6(COC6)C5)CC4)nc3c2C(C)C)cn2ncnc12` (stereo not drawn) [Example 244], the values for the IC50 in experiment [1] (setting [10]), in experiment [2] (setting [11]) and in experiment [3] (setting [12]) were 1.6 nM, 8.2 nM and 2350 nM, respectively.
For the molecule `Cc1cc(-c2[nH]c3ccc(C4CCC(NC5COC5)CC4)nc3c2C(C)C)cc(C)n1` (stereo not drawn) [Example 287], the figures for the IC50 in experiment [1] (setting [10]), in experiment [2] (setting [11]) and in experiment [3] (setting [12]) were 25 nM, 33 nM and 2360 nM, respectively.
Turning to `Cc1c(-c2[nH]c3ccc(C4CCC(NC(C)(C)C)CC4)nc3c2C(C)C)cn2ncnc2c1C` (stereo not drawn) [Example 1056], the results for the IC50 in experiment [1] (setting [4]), in experiment [2] (setting [5]) and in experiment [3] (setting [6]) were 2.1 nM, 1.2 nM and 2990 nM, respectively.
Regarding `Cc1c(-c2[nH]c3ccc(N4C[C@@H](C)N(C(=O)CCN(C)C)C[C@H]4C)nc3c2C(C)C)cn2ncnc2c1C` [Example 797], the values for the IC50 in experiment [1] (setting [4]), in experiment [2] (setting [5]) and in experiment [3] (setting [6]) were 10 nM, 14 nM and 17600 nM, respectively.
As for `COc1cc(-c2[nH]c3cc(C)c(C4CCC(N5CCC5)CC4)nc3c2C(C)C)cn2ncnc12` (stereo not drawn) [Example 325], the IC50 in experiment [1] (setting [10]) is 1.5 nM; in experiment [2] (setting [11]) it was 38 nM; in experiment [3] (setting [12]), 3110 nM.
Taken in the same sequence, the figures for `Cc1c(-c2[nH]c3ccc(N4CCC(N(Cc5ncnn5C)Cc5ncnn5C)CC4)nc3c2C(C)C)cn2ncnc2c1C` [Example 76] were 34 nM, 15 nM and more than 50000 nM.
`Cc1cnc(CNC2CCC(c3ccc4[nH]c(-c5cc(CO)c6ncnn6c5)c(C(C)C)c4n3)CC2)cn1` (stereo not drawn) [Example 224]: the IC50 is 1.5 nM in experiment [1] (setting [10]), 4.2 nM in experiment [2] (setting [11]) and 718 nM in experiment [3] (setting [12]).
Turning to `Cc1c(-c2[nH]c3ccc(C4CCC(N5CCC(F)C5)CC4)nc3c2C(C)C)cn2ncnc2c1C` (stereo not drawn) [Example 1062], the IC50 in experiment [1] (setting [4]) was determined as 13 nM; in experiment [2] (setting [5]), 25 nM; in experiment [3] (setting [6]), 10200 nM.

The record behind these values is patent publication US10544143B2, “4-azaindole compounds” (BRISTOL-MYERS SQUIBB COMPANY, priority 2017, dated 2020).
